Experimental data as given in patent publication US9675073B2, “Insecticidal compounds based on N-arylsulfanylmethylcarboxamidearylthiosulfonamides derivatives” (Syngenta Participations AG, priority 2012, dated 2017).
Where two headings read alike, the source gives them in different places.

How the values were obtained:
Format in all cases: in vivo
[1] = system: Heliothis virescens (Tobacco Budworm); assay: Heliothis virescens eggs on artificial diet; conditions: 120 h, read-out: egg or larval mortality
Method: Heliothis virescens (Tobacco Budworm):
Eggs (0-24 h old) were placed in 24-well microtiter plates on artificial diet and treated with aqueous test solutions prepared from 10,000 ppm DMSO stock solutions by pipetting. The samples were assessed for egg and larval mortality 5 days after infestation.

[2] = system: Tetranychus urticae (Two-Spotted Spider Mite); assay: Tetranychus urticae bean leaf disc spray test; conditions: foliar, 192 h, application rate 200 ppm, mixed population (mobile stages) on bean leaf discs, 8 days after infestation
Method: Tetranychus urticae (Two-Spotted Spider Mite):
Bean leaf discs on agar in 24-well microtiter plates were sprayed with aqueous test solutions prepared from 10,000 ppm DMSO stock solutions. After drying the leaf discs were infested with a mite population of mixed ages. The samples were assessed for mortality on mixed population (mobile stages) 8 days after infestation.

[3] = system: Diabrotica balteata (Corn Root Worm); assay: Diabrotica balteata L2 larvae on treated artificial diet; conditions: 120 h, application rate 200 ppm, 5 days after infestation
Method: 24-well microtiter plates with artificial diet were treated with aqueous test solutions prepared from 10,000 ppm DMSO stock solutions by pipetting. After drying, the plates were infested with L2 larvae (6 to 10 per well). The samples were assessed for mortality 5 days after infestation.

[4] = system: Thrips tabaci (Onion Thrips); assay: Thrips tabaci sunflower leaf disc spray test; conditions: foliar, 144 h, application rate 200 ppm, mixed ages on sunflower leaf discs, 6 days after infestation
Method: Thrips tabaci (Onion Thrips):
Sunflower leaf discs were placed on agar in 24-well microtiter plates and sprayed with aqueous test solutions prepared from 10,000 ppm DMSO stock solutions. After drying the leaf discs were infested with a thrips population of mixed ages. The samples were assessed for mortality 6 days after infestation.

[5] = system: Spodoptera littoralis (Egyptian Cotton Leaf Worm); assay: Spodoptera littoralis cotton leaf disc spray test, L1 larvae; conditions: foliar, 72 h
Method: Spodoptera littoralis (Egyptian Cotton Leaf Worm)
Cotton leaf discs were placed on agar in 24-well microtiter plates and sprayed with aqueous test solutions prepared from 10,000 ppm DMSO stock solutions. After drying the leaf discs were infested with five L1 larvae. The samples were assessed for mortality 3 days after infestation.

[6] = system: Myzus persicae (Green Peach Aphid); assay: Myzus persicae sucrose solution feeding test through Parafilm; conditions: 120 h, test rate 12 ppm, 5 days after infestation
Method: Myzus persicae (Green Peach Aphid)
Test compounds from 10,000 ppm DMSO stock solutions were applied by pipette into 24-well microtiter plates and mixed with sucrose solution. The plates were closed with a stretched Parafilm. A plastic stencil with 24 holes was placed onto the plate and infested pea seedlings were placed directly on the Parafilm. The infested plate was closed with a gel blotting paper and another plastic stencil and then turned upside down. The samples were assessed for mortality 5 days after infestation.

[7] = system: Plutella xylostella (Diamond Back Moth); assay: Plutella xylostella L2 larvae on treated artificial diet; conditions: 120 h
Method: 24-well microtiter plates with artificial diet were treated with aqueous test solutions prepared from 10,000 ppm DMSO stock solutions by pipetting. After drying, the plates were infested with L2 larvae (10 to 15 per well). The samples were assessed for mortality 5 days after infestation.

[8] = system: Diabrotica balteata, (Corn Root Worm); assay: Diabrotica balteata L2 larvae on sprayed maize sprouts; conditions: 96 h, application rate 200 ppm, 4 days after infestation
Method: Maize sprouts, placed on an agar layer in 24-well microtiter plates were treated with aqueous test solutions prepared from 10,000 ppm DMSO stock solutions by spraying. After drying, the plates were infested with L2 larvae (6 to 10 per well). The samples were assessed for mortality 4 days after infestation.

[9] = application rate 200 ppm, eggs on artificial diet, 5 days after infestation

CC(=O)NCSc1ccc(C2=NOC(c3cc(Cl)cc(Cl)c3)(C(F)(F)F)C2)cc1Br (stereo not shown) [Compound A1, N-[[2-bromo-4-[5-(3,5-dichlorophenyl)-5-(trifluoromethyl)-4H-isoxazol-3-yl]phenyl]sulfanylmethyl]acetamide]
≥ 80%: mortality at 200 ppm [1] | mortality at 200 ppm [2] | mortality at 200 ppm [3] | mortality at 200 ppm [4] | mortality at 200 ppm [5] | mortality at 12 ppm [6] | mortality at 200 ppm [7]

CC(=O)NCSc1ccc(C2=CSC(c3cc(Cl)cc(Cl)c3)(C(F)(F)F)C2)cc1Br (stereo not shown) [Compound C1, N-[[2-bromo-4-[2-(3,5-dichlorophenyl)-2-(trifluoromethyl)-3H-thiophen-4-yl]phenyl]sulfanylmethyl]acetamide]
≥ 80%: mortality at 200 ppm [1, 9] | mortality at 200 ppm [8] | mortality at 200 ppm ([5]; application rate 200 ppm, L1 larvae on cotton leaf discs, 3 days after infestation, read-out: mortality) | mortality at 200 ppm ([7]; application rate 200 ppm, L2 larvae on artificial diet, 5 days after infestation, read-out: mortality)

O=C(NCSc1ccc(C2=NOC(c3cc(Cl)cc(Cl)c3)(C(F)(F)F)C2)cc1Br)C1CC1 (stereo not shown) [Compound A3, N-[[2-bromo-4-[5-(3,5-dichlorophenyl)-5-(trifluoromethyl)-4H-isoxazol-3-yl]phenyl]sulfanylmethyl]cyclopropanecarboxamide]
≥ 80%: mortality at 200 ppm [1] | mortality at 200 ppm [2] | mortality at 200 ppm [3] | mortality at 200 ppm [4] | mortality at 200 ppm [5] | mortality at 12 ppm [6] | mortality at 200 ppm [7]

CC(C)C(=O)NCSc1ccc(C2=CSC(c3cc(Cl)cc(Cl)c3)(C(F)(F)F)C2)cc1Br (stereo not shown) [Compound C2, N-[[2-bromo-4-[2-(3,5-dichlorophenyl)-2-(trifluoromethyl)-3H-thiophen-4-yl]phenyl]sulfanylmethyl]-2-methyl-propanamide]
≥ 80%: mortality at 200 ppm [1, 9]

CC1(C(=O)NCSc2ccc(C3=NOC(c4cc(Cl)cc(Cl)c4)(C(F)(F)F)C3)cc2Br)CC1 (stereo not shown) [Compound A4, N-[[2-bromo-4-[5-(3,5-dichlorophenyl)-5-(trifluoromethyl)-4H-isoxazol-3-yl]phenyl]sulfanylmethyl]-1-methyl-cyclopropanecarboxamide]
≥ 80%: mortality at 200 ppm [1]

O=C(NCSc1ccc(C2=NOC(c3cc(Cl)cc(Cl)c3)(C(F)(F)F)C2)cc1Br)c1ccccc1 (stereo not shown) [Compound A2, N-[[2-bromo-4-[5-(3,5-dichlorophenyl)-5-(trifluoromethyl)-4H-isoxazol-3-yl]phenyl]sulfanylmethyl]benzamide]
≥ 80%: mortality at 200 ppm [1] | mortality at 200 ppm [7]
